Structures are written as SMILES.

This test deals with T1, human GPR119 (Homo sapiens, UniProt Q8TDV5).
T1 construct: expressed in transfected cells
T1 sequence (Q8TDV5 1-335): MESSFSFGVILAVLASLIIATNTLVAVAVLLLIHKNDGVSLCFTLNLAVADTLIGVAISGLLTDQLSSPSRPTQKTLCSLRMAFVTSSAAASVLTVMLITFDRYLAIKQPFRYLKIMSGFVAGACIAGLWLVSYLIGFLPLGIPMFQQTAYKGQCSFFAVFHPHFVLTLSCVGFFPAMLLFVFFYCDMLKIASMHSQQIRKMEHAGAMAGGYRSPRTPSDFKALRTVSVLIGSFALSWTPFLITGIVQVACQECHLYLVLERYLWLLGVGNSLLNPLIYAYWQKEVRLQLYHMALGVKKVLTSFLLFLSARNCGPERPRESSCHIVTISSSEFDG
Put plainly: Functional cellular assay measuring GPR119-mediated cAMP release (HTRF) in HEK-293 cells stably expressing recombinant GPR119. Conditions: cAMP response, cell line expressing human GPR119 (HEK-293), 30 minutes at room temperature. In kind it is cell-based. The method, then: Functional Cellular Assays Measuring GPR119-Mediated cAMP Release
Compounds of the invention, which are agonists of GPR119, were characterized by functional assays measuring the cAMP response of HEK-293 cell lines stably expressing recombinant GPR119 from man, mouse or rat, or by using a hamster cell line HIT-T15 expressing GPR119 endogenously. The cAMP content was determined using a kit based on homogenous time-resolved fluorescence (HTRF) from Cisbio Corp. (cat. no. 62AM4PEC). For preparation, cells were split into T175 culture flasks and grown to near confluency in medium (DMEM/10% FCS for HEK-293 cells, and F-12K medium/10% horse serum/2.5% FCS for HIT-T15 cells, respectively). Medium was then removed and cells washed with PBS lacking calcium and magnesium ions, followed by proteinase treatment with accutase (Sigma-Aldrich, cat. no. A6964). Detached cells were washed and resuspended in assay buffer (1×HBSS; 20 mM HEPES, 0.1% BSA, 2 mM IBMX) and cellular density determined. They were then diluted to 400000 cells/mL and 25 μL-aliquots dispensed to the wells of 96-well plates. For measurement, 25 μL of test compound in assay buffer was added and incubated for 30 minutes at room temperature. After addition of HTRF reagents diluted in lysis buffer, the plates were incubated for 1 hour, followed by measuring the fluorescence ratio at 665 vs. 620 nm. Potency of the agonists was quantified by determining the concentrations that caused 50% of the maximal response/activation (EC50). See Table 3 for exemplary data obtained using the cell line expressing human GPR119.
For orientation: Time-resolved FRET reads energy transfer from a long-lived donor to a nearby acceptor.
Broadly, the EC50 is the concentration at which the effect is half-maximal. In the case of `O=C1[C@H](Oc2ccc(OCC3CC3)nc2)CCN1c1ccc2nc(C3CC3)nn2c1` [Example 1-01, (3R)-3-[[6-(Cyclopropylmethoxy)-3-pyridyl]oxy]-1-(2-cyclopropyl-[1,2,4]triazolo[1,5-a]pyridin-6-yl)pyrrolidin-2-one], the EC50 worked out at 11300 nM.
Under `O=C1[C@H](Oc2ccc(OCC3CC3)nc2)CCN1c1ccc2ncnn2c1` [Example 1-02, (3R)-3-[[6-(cyclopropylmethoxy)-3-pyridyl]oxy]-1-([1,2,4]triazolo[1,5-a]pyridin-6-yl)pyrrolidin-2-one] stands 851 nM; under `O=C1[C@H](Oc2ccc(OCC3CC3)nc2)CCN1c1ccc2nccn2c1` [Example 1-03, (3R)-3-[[6-(cyclopropylmethoxy)-3-pyridyl]oxy]-1-imidazo[1,2-a]pyridin-6-yl-pyrrolidin-2-one], 7620 nM.
Under `COC(=O)Cn1c(C)c2ccc(N3CC[C@@H](Oc4ccc(OCC5CC5)nc4)C3=O)cn2c1=O` [Example 1-04, methyl 2-[6-[(3R)-3-[[6-(cyclopropylmethoxy)-3-pyridyl]oxy]-2-oxo-pyrrolidin-1-yl]-1-methyl-3-oxo-imidazo[1,5-a]pyridin-2-yl]acetate] stands 155 nM.
As for `O=C1[C@H](Oc2ccc(OCC3CC3)nc2)CCN1c1ccc2nncn2c1` [Example 1-05, (3R)-3-[[6-(cyclopropylmethoxy)-3-pyridyl]oxy]-1-([1,2,4]triazolo[4,3-a]pyridin-6-yl)pyrrolidin-2-one], the figure is 7990 nM; as for `O=C(O)Cc1nc2ccc(N3CC[C@@H](Oc4ccc(OCC5CC5)nc4)C3=O)cn2n1` [Example 1-06, 2-[6-[(3R)-3-[[6-(cyclopropylmethoxy)-3-pyridyl]oxy]-2-oxo-pyrrolidin-1-yl]-[1,2,4]triazolo[1,5-a]pyridin-2-yl]acetic acid], 17300 nM; as for `COC(=O)Cc1nc2ccc(N3CC[C@@H](Oc4ccc(OCC5CC5)nc4)C3=O)cn2n1` [Example 1-07, methyl 2-[6-[(3R)-3-[[6-(cyclopropylmethoxy)-3-pyridyl]oxy]-2-oxo-pyrrolidin-1-yl]-[1,2,4]triazolo[1,5-a]pyridin-2-yl]acetate], 1580 nM.
On to `COC(=O)c1nc2ccc(N3CC[C@@H](Oc4ccc(OCC5CC5)nc4)C3=O)cn2n1` [Example 1-08, methyl 6-[(3R)-3-[[6-(cyclopropylmethoxy)-3-pyridyl]oxy]-2-oxo-pyrrolidin-1-yl]-[1,2,4]triazolo[1,5-a]pyridine-2-carboxylate], for which the EC50 was determined as 5540 nM.
Turning to `CN(C)C(=O)Cn1nc2ccc(N3CC[C@@H](Oc4ccc(OCC5CC5)nc4)C3=O)cn2c1=O` [Example 1-09, 2-[6-[(3R)-3-[[6-(cyclopropylmethoxy)-3-pyridyl]oxy]-2-oxo-pyrrolidin-1-yl]-3-oxo-[1,2,4]triazolo[4,3-a]pyridin-2-yl]-N,N-dimethyl-acetamide], the EC50 amounted to 191 nM.
As for `O=C1[C@H](Oc2ccc(Oc3ccc(F)cc3)nc2)CCN1c1cc(F)c2n[nH]c(=O)n2c1` [Example 1-10, 8-fluoro-6-[(3R)-3-[[6-(4-fluorophenoxy)-3-pyridyl]oxy]-2-oxo-pyrrolidin-1-yl]-2H-[1,2,4]triazolo[4,3-a]pyridin-3-one], the EC50 came to 658 nM.
For `CN(C)C(=O)Cn1nc2ccc(N3CC[C@@H](Oc4ccc(Oc5ccc(F)cc5)nc4)C3=O)cn2c1=O` [Example 1-11, 2-[6-[(3R)-3-[[6-(4-fluorophenoxy)-3-pyridyl]oxy]-2-oxo-pyrrolidin-1-yl]-3-oxo-[1,2,4]triazolo[4,3-a]pyridin-2-yl]-N,N-dimethyl-acetamide], the EC50 amounted to 206 nM.
On to `CN(C)C(=O)Cn1nc2ccc(N3CC[C@@H](Oc4ccc(C(=O)CC5CC5)cc4)C3=O)cn2c1=O` [Example 1-12, 2-[6-[(3R)-3-[4-(2-cyclopropylacetyl)phenoxy]-2-oxo-pyrrolidin-1-yl]-3-oxo-[1,2,4]triazolo[4,3-a]pyridin-2-yl]-N,N-dimethyl-acetamide], for which the EC50 turned out to be 269 nM.

Source of the values: patent publication US9758520B2, “Substituted fused heterocycles as GPR119 modulators for the treatment of diabetes, obesity, dyslipidemia and related disorders” (SANOFI, priority 2014, dated 2017).
